In assay [1] the test system is Entero. faecalis L 562. Nature of the assay: MIC, microbroth dilution, Entero. faecalis L 562. The assay is classed as cell-based, Enterococcus faecalis.
For assay [2], the system named is Enterococcus faecium L 564. Nature of the assay: MIC, glycopeptide-resistant Enterococcus faecium L 564. The assay is classed as cell-based.
Assay [3] relates to Enterococcus faecium L 565. Nature of the assay: MIC, glycopeptide-resistant Enterococcus faecium L 565. The assay is classed as cell-based.
In assay [4] the test system is Enterococcus faecium L 569. As to the kind of experiment: MIC, glycopeptide-resistant Enterococcus faecium L 569. The assay is classed as cell-based.
Assay [5] deals with Enterococcus faecium L 1650. Nature of the assay: MIC, glycopeptide-resistant Enterococcus faecium L 1650. The assay is classed as cell-based.
Assay [6] deals with Enterococcus faecium L 1652. As to the kind of experiment: MIC, glycopeptide-resistant Enterococcus faecium L 1652. The assay is classed as cell-based.
The subject of assay [7] is Enterococcus faecium L 1666. Nature of the assay: MIC, glycopeptide-resistant Enterococcus faecium L 1666. The assay is classed as cell-based.
The subject of assay [8] is Enterococcus faecium L 1680. Nature of the assay: MIC, glycopeptide-resistant Enterococcus faecium L 1680. The assay is classed as cell-based.
The test system of assay [9] is Enterococcus faecium L 1681. Nature of the assay: MIC, glycopeptide-resistant Enterococcus faecium L 1681. The assay is classed as cell-based.
In assay [10] the test system is Enterococcus faecium L 1683. As to the kind of experiment: MIC, glycopeptide-resistant Enterococcus faecium L 1683. The assay is classed as cell-based.
The test system of assay [11] is Enterococcus faecium L 1686. Nature of the assay: MIC, glycopeptide-resistant Enterococcus faecium L 1686. The assay is classed as cell-based.
Assay [12] relates to highly glycopeptide-resistant enterococci. As to the kind of experiment: in vitro activity against highly glycopeptide-resistant enterococci (summary). The assay is classed as cell-based.
In assay [13] the test system is Staph. aureus L 165. Nature of the assay: MIC, microbroth dilution, Staph. aureus L 165. The following applies: Table II. The assay is classed as cell-based.
Assay [14] deals with Staph. aureus L 561. Nature of the assay: MIC, microbroth dilution, Staph. aureus L 561. The assay is classed as cell-based. The following applies: Table II.
The subject of assay [15] is Staph. epidermidis L 147. As to the kind of experiment: MIC, microbroth dilution, Staph. epidermidis L 147. The assay is classed as cell-based. The following applies: Table II.
In assay [16] the test system is Staph. epidermidis L 533. Nature of the assay: MIC, microbroth dilution, Staph. epidermidis L 533. The assay is classed as cell-based. As to conditions: Table II. In general terms: Dilution methods test growth across graded concentrations, often in twofold steps.
Assay [17] relates to Staph. haemolyticus L 602. As to the kind of experiment: MIC, microbroth dilution, Staph. haemolyticus L 602. As to conditions: Table II. The assay is classed as cell-based.
The subject of assay [18] is Strep. pyogenes L 49. As to the kind of experiment: MIC, microbroth dilution, Strep. pyogenes L 49. The assay is classed as cell-based. The following applies: Table II.
Assay [19] deals with Strep. pneumoniae L 44. As to the kind of experiment: MIC, microbroth dilution, Strep. pneumoniae L 44. The assay is classed as cell-based. As to conditions: Table II.
In assay [20] the test system is Entero. faecalis L 149. Nature of the assay: MIC, microbroth dilution, Entero. faecalis L 149. The assay is classed as cell-based. As to conditions: Table II.
Assay [21] concerns Neisseria gonorrh. L 997. Nature of the assay: MIC, microbroth dilution, Neisseria gonorrh. L 997. The assay is classed as cell-based, Neisseria gonorrhoeae. The following applies: Table II.
For assay [22], the system named is Esch. coli L 47. As to the kind of experiment: MIC, microbroth dilution, Esch. coli L 47. As to conditions: Table II. The assay is classed as cell-based.
Assay [23] relates to Pseudomonas aerug. L 4. As to the kind of experiment: MIC, microbroth dilution, Pseudomonas aerug. L 4. The following applies: Table II. The assay is classed as cell-based.
The subject of assay [24] is Proteus vulgaris L 79. Nature of the assay: MIC, microbroth dilution, Proteus vulgaris L 79. The assay is classed as cell-based. As to conditions: Table II.
Assay [25] relates to Enterococcus faecalis L 560. As to the kind of experiment: MIC, glycopeptide-resistant Enterococcus faecalis L 560. The assay is classed as cell-based. The following applies: Table III.
For assay [26], the system named is Enterococcus faecalis L 563. Nature of the assay: MIC, glycopeptide-resistant Enterococcus faecalis L 563. The assay is classed as cell-based. The following applies: Table III.
Assay [27] has as its system Strep. pyogenes C 203. Nature of the assay: experimental streptococcal septicemia in mice. The assay is classed as in vivo. As to conditions: Strep. pyogenes C 203 septicemia, adm. route sc. An excerpt: The experiments have been carried out according to the procedure described by V. Arioli et al., Journal of Antibiotics 29, 511 (1976).

The results in this text go back to patent US5750509A, “Amide derivatives of antibiotic A 40926” (Gruppo Lepetit S.p.A., priority 1991, dated 1998).

Regarding `CN[C@H](CC(C)C)C(=O)N[C@H]1C(=O)N[C@@H](CC(N)=O)C(=O)N[C@H]2C(=O)N[C@H]3C(=O)N[C@H](C(=O)N[C@H](C(=O)O)c4cc(O)cc(O)c4-c4cc3ccc4O)[C@H](O)c3ccc(c(Cl)c3)Oc3cc2cc(c3O[C@@H]2O[C@H](CO)[C@@H](O)[C@H](O)[C@H]2O[C@H]2C[C@](C)(N)[C@H](O)[C@H](C)O2)Oc2ccc(cc2Cl)[C@H]1O` [VANCOMYCIN, vancomycin], the MIC – broadly, the smallest concentration in the dilution series that meets the test's criterion for growth inhibition – in assay [1] (Enterococcus faecalis, L562) is > 128 µg/mL; in [2] (Enterococcus faecium, L564), > 128 µg/mL; in assay [3] (Enterococcus faecium, L565), > 128 µg/mL; in assay [4] (Enterococcus faecium, L569), > 128 µg/mL; in assay [5] (Enterococcus faecium, L1650) it was > 128 µg/mL; in assay [6] (Enterococcus faecium, L1652), > 128 µg/mL. Further, the minimum inhibitory concentration (MIC) is > 128 µg/mL in [7] (Enterococcus faecium, L1666); > 128 µg/mL in [8] (Enterococcus faecium, L1680); > 128 µg/mL in assay [9] (Enterococcus faecium, L1681); > 128 µg/mL in [10] (Enterococcus faecium, L1683); > 128 µg/mL in assay [11] (Enterococcus faecium, L1686). Moreover, the “in vitro activity / resistance in words” value in assay [12] is listed as “highly resistant”.

For teicoplanin, the MIC came out at 0.25 µg/mL in assay [13]; 8 µg/mL in assay [14]; 4 µg/mL in assay [15]; 8 µg/mL in assay [16]; 32 µg/mL in [17]; 0.13 µg/mL in [18]. In addition, the minimum inhibitory concentration (MIC) was 0.06 µg/mL in assay [19]; 0.13 µg/mL in assay [20]; > 128 µg/mL in assay [1] (Entero. faecalis L 562, Table II); > 128 µg/mL in assay [1] (Enterococcus faecalis L 562, Table III); 32 µg/mL in assay [21]; > 128 µg/mL in assay [22]. Also, the MIC in [23] was > 128 µg/mL; in assay [24] it was > 128 µg/mL; in assay [25] it was > 128 µg/mL; in [26], > 128 µg/mL; in assay [2] (Enterococcus faecium L 564, Table III), > 128 µg/mL; in assay [3] (Enterococcus faecium L 565, Table III) it was > 128 µg/mL. The minimum inhibitory concentration (MIC) in assay [4] (Enterococcus faecium L 569, Table III) was > 128 µg/mL; in assay [5] (Enterococcus faecium L 1650, Table III) it was > 128 µg/mL; in [6] (Enterococcus faecium L 1652, Table III), > 128 µg/mL; in assay [7] (Enterococcus faecium L 1666, Table III) it was > 128 µg/mL; in [8] (Enterococcus faecium L 1680, Table III), > 128 µg/mL; in assay [9] (Enterococcus faecium L 1681, Table III) it was > 128 µg/mL. Moreover, the MIC in assay [10] (Enterococcus faecium L 1683, Table III) was > 128 µg/mL; in assay [11] (Enterococcus faecium L 1686, Table III), > 128 µg/mL. In addition, the ED50 – broadly, the dose at which the effect has come halfway, by size or by number of responders – in assay [27] is given as 0.16 mg/kg. Moreover, in assay [12], the “in vitro activity / resistance in words” value was “highly resistant”.
